Experimental findings from patent US20250136559A1, “SMO MODULATOR COMPOUNDS” (OMASS THERAPEUTICS LIMITED, priority 2022, published 2025) are described below.

Holding throughout (assay type): cell-based
For one assay, the target named is T1, mouse SMO^WT (Mus musculus, UniProt P56726).
T1 construct: expressed in transfected cells
Kind of assay: Mouse assay: Gli1 qPCR in MEF cells stably expressing mouse SMO WT. Conditions: mSHh-treated, 24 hours; for IC50: Gli1 inhibition by qPCR, read-out: Mouse WT pIC50 (converted); for Mouse WT % Inh: percentage Gli1 inhibition. In short, it runs like this:
(§1)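 MEFs stably expressing the SMO variant pre-treated with compound 1 h, then stimulated with mSHh and incubated 24 h at 37 °C. Gli1 mRNA quantified by one-step TaqMan qPCR with Gusb reference, four replicates per concentration; expressed as % Gli1 inhibition relative to mSHh-treated controls.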
(In general: In qPCR the cycle at which signal appears reflects the starting amount.)

The target in another assay is T2, hSMO WT (Homo sapiens, UniProt Q99835).
T2 construct: expressed in transfected cells; host or cells: SMO knock-out mouse embryonic fibroblasts (MEF SMO-/-), BacMam transduction
T2 sequence (Q99835 28-787): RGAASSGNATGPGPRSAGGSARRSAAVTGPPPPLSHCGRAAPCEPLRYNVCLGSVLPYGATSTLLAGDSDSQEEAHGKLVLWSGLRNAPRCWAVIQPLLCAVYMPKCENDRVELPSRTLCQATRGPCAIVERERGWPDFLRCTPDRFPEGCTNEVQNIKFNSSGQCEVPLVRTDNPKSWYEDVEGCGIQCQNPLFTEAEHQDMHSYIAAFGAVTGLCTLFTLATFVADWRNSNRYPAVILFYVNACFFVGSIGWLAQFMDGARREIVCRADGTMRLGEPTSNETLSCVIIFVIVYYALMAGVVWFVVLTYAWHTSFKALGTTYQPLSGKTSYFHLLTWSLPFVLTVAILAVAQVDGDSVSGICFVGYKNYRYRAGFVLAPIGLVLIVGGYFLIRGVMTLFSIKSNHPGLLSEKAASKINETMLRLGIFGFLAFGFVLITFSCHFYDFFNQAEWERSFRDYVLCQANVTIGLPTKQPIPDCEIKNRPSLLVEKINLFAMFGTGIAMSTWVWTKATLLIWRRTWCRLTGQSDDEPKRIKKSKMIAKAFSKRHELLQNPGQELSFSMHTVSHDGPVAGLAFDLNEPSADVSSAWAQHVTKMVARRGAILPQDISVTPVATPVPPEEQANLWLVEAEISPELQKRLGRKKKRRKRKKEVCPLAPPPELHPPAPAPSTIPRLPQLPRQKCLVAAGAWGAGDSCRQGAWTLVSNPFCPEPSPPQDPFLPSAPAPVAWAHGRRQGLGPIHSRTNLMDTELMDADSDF
Put plainly: Human assay: Gli1 qPCR in MEF SMO-/- cells BacMam-transduced with hSMO WT. Conditions: mSHh-treated, 24 hours; for IC50: Gli1 inhibition by qPCR, read-out: Human WT pIC50 (converted); for Human WT % Inh: percentage Gli1 inhibition. As for the experimental part: (§2) Cell culture. All materials were purchased from Sigma-Aldrich, unless otherwise stated. SMO knock-out mouse embryonic fibroblasts (MEF^SMO−/−) were maintained in Dulbecco's modified Eagle's medium (DMEM)/high-glucose medium supplemented with 10% foetal bovine serum (FBS, Invitrogen), 50 U/mL penicillin and 5 mg/mL streptomycin (supplied as a mixture), 0.1 mMMEM Non-Essential Amino Acids (supplied as 100× solution, ThermoFisher) and 1 mM sodium pyruvate at 37° C. in a humidified 95% air/5% CO2 atmosphere.
(§3) BacMam transduction and compound treatment. MEF^SMO−/− cells were transduced with BacMam virus (MOI 1:10 in the presence of 4.2 mM valproic acid) containing either the hSMO WT or desired receptor variant sequence. Transduced cells were seeded at 6000 cells per well in a Poly-D-Lysine coated 384-well plate (Greiner) before the spent culture medium was removed on the following day and replaced with assay medium (OptiMEM (Gibco) supplemented with 50 U/mL penicillin and 5 mg/mL streptomycin (supplied as a mixture), 0.1 mMMEM Non-Essential Amino Acids (supplied as 100× solution, ThermoFisher), 1 mM sodium pyruvate and 10 mM HEPES) containing test compounds at 2.5× final assay concentrations. After 1 hour incubation, cells were treated with assay medium containing mSHh prepared at 2.5× of final assay concentrations specified in the text and incubated for a further 24 hours at 37° C. in a humidified 95% air/5% ° C.2 atmosphere prior to qPCR analysis.
(§4) Cell lysis and one-step qPCR. The Cells-to-CT™ 1-Step TaqMan® Kit was used in conjunction with TaqMan primer-probe assays for the detection of Gill (FAM, Mm00494654_m1) and Gusb (VIC, Mm01197698_m1) genes (all purchased from Life Technologies). Following 24 hours cell treatment, spent medium was removed and cells were washed with PBS before the application of lysis and stop solution as per manufacturer's instructions. The qPCR reactions were run in a 384-well PCR plate using master mix prepared according to manufacturer's instructions and cell lysate samples from treatment wells. Real-time PCR amplification was detected using the Bio-Rad CFX384 Touch PCR system. Four experimental replicates (two cell replicates and two qPCR replicates) were performed for each compound concentration tested. Real-time data were analysed using the CFX Maestro software (Bio-Rad) and obtained expression values were converted to percentage Gill inhibition by normalising to the average Gill expression of mSHh-treated control samples

The next assay concerns the target T3, human SMO W535L (Homo sapiens, UniProt Q99835, W535L).
T3 construct: expressed in transfected cells; host or cells: SMO knock-out mouse embryonic fibroblasts (MEF SMO-/-), BacMam transduction
Put plainly: Human assay: Gli1 qPCR in MEF SMO-/- cells BacMam-transduced with hSMO W535L variant. The following applies: mSHh-treated, 24 hours; for IC50: Gli1 inhibition by qPCR, read-out: Human W535L pIC50 (converted); for Human W535L % Inh: percentage Gli1 inhibition. As for the experimental part:
as §2, §3, §4

The target in the next assay is T4, mouse SMO^D473H (Mus musculus, UniProt P56726, D477H).
T4 construct: expressed in transfected cells
T4 sequence (P56726 33-793 D477H): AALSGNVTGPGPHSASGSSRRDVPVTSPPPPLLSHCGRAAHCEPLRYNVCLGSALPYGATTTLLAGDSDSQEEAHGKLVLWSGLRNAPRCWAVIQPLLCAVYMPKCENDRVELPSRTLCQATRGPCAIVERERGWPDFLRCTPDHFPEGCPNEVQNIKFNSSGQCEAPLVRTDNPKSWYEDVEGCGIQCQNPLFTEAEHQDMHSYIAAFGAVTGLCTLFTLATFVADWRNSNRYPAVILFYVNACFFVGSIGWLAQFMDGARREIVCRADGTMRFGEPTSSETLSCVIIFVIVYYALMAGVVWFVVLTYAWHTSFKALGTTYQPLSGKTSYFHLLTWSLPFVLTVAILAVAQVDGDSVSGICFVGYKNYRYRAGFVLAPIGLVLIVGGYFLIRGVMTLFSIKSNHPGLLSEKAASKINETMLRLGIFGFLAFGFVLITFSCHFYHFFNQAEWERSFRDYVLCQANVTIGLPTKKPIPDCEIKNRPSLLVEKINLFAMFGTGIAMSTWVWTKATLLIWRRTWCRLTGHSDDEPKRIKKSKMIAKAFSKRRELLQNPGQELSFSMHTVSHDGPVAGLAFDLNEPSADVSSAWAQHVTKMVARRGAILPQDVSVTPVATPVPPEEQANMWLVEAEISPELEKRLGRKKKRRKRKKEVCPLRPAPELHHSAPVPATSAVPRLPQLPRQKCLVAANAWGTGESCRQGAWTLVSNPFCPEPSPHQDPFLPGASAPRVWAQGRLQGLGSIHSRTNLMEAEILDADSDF
Kind of assay: Mouse assay: Gli1 qPCR in MEF cells stably expressing mouse SMO D473H. Conditions: mSHh-treated, 24 hours; for IC50: Gli1 inhibition by qPCR, read-out: Mouse D473H pIC50 (converted); for Mouse D473H % Inh: percentage Gli1 inhibition. In short, it runs like this: as §1

In another assay the target is T5, human SMO D473H (Homo sapiens, UniProt Q99835, D473H).
T5 construct: expressed in transfected cells; host or cells: SMO knock-out mouse embryonic fibroblasts (MEF SMO-/-), BacMam transduction
T5 sequence (Q99835 28-787 D473H): as the sequence (Q99835 28-787) above, with D446H counted along it
Kind of assay: Human assay: Gli1 qPCR in MEF SMO-/- cells BacMam-transduced with hSMO D473H variant. Conditions: mSHh-treated, 24 hours; for IC50: Gli1 inhibition by qPCR, read-out: Human D473H pIC50 (converted); for Human D473H % Inh: percentage Gli1 inhibition. The protocol:
Cell culture. All materials were purchased from Sigma-Aldrich, unless otherwise stated.
as §3, with “concentrations.” for “concentrations. After 1 hour incubation, cells were treated with assay medium containing mSHh prepared at 2.5× of final assay concentrations specified in the text and incubated for a further 24 hours at 37° C. in a humidified 95% air/5% ° C.2 atmosphere prior to qPCR analysis.”
as §4

For the next assay, the target named is T6, mouse SMO^W535L (Mus musculus, UniProt P56726, W539L).
T6 construct: expressed in transfected cells
T6 sequence (P56726 33-793 W539L): as the sequence (P56726 33-793 D477H) above, with H445D, W507L counted along it
Kind of assay: Mouse assay: Gli1 qPCR in MEF cells stably expressing mouse SMO W535L. Conditions: mSHh-treated, 24 hours; for IC50: Gli1 inhibition by qPCR, read-out: Mouse W535L pIC50 (converted); for Mouse W535L % Inh: percentage Gli1 inhibition. In short, it runs like this:
as §1

T1 sequence (P56726 33-793): as the sequence (P56726 33-793 D477H) above, with H445D counted along it
T3 sequence (Q99835 28-787 W535L): as the sequence (Q99835 28-787) above, with W508L counted along it

In the case of `Cc1c(-c2ccc(NC(=O)c3ccc(Cl)c(CN4CCS(=O)(=O)CC4)c3)cc2)n[nH]c1C1CC1` [Example 4-22, 4-chloro-N-[4-(5-cyclopropyl-4-methyl-1H-pyrazol-3-yl)phenyl]-3-[(1,1-dioxo-1,4-thiazinan-4-yl)methyl]benzamide], at mouse SMO^WT, the IC50 is 2 nM and the “Mouse WT % Inh” value is on record as 97.0%. Moreover, on hSMO WT, the IC50 is 1.26 nM and the “Human WT % Inh” value amounted to 98.6%. Moreover, at human SMO W535L, the IC50 was 15.8 nM and the “Human W535L % Inh” value worked out at 89.9%. In addition, at mouse SMO^D473H, the IC50 was 5.01 nM and the “Mouse D473H % Inh” value turned out to be 97.6%. On human SMO D473H, the IC50 is 100 nM and the “Human D473H % Inh” value came out at 111.1%. At mouse SMO^W535L, the IC50 is 3.98 nM and the “Mouse W535L % Inh” value came out at 49.2%.
As for `Cc1c(-c2ccc(NC(=O)c3ccc(Cl)c(CN4CCS(=O)(=O)CC4)c3)cc2)nn(C)c1C1CC1` [Example 4-26, 4-Chloro-N-[4-(5-cyclopropyl-1,4-dimethylpyrazol-3-yl)phenyl]-3-[(1,1-dioxo-1,4-thiazinan-4-yl)methyl]benzamide], at mouse SMO^WT, the IC50 was 0.794 nM and the “Mouse WT % Inh” value is reported as 97.0%. On hSMO WT, the IC50 was 0.794 nM and the “Human WT % Inh” value was found to be 99.2%. On human SMO W535L, the IC50 is 6.31 nM and the “Human W535L % Inh” value was 92.5%. Besides, on mouse SMO^D473H, the IC50 was 6.31 nM and the “Mouse D473H % Inh” value is given as 97.6%. On human SMO D473H, the IC50 was 63.1 nM and the “Human D473H % Inh” value is on record as 111.9%. Moreover, on mouse SMO^W535L, the IC50 was 5.01 nM and the “Mouse W535L % Inh” value is 58.6%.
